Measurements: patent publication US20070092577A1, “Dietary calcium for reducing the production of reactive oxygen species” (University of Tennessee Research Foundation, priority 2005, published 2007)

Key:
IL-15 = IL-15 expression in differentiated Zen-bio human adipocytes; format: cell-based; conditions: 10 nmol/L 1α, 25-(OH)2-D3 or 10 μmol/L nifedipine, 48 h; p=0.473
Method: Human pre-adipocytes used in this study were supplied by Zen-Bio (Research Triangle, N.C.). […] The cells are isolated from the stromal vascular fraction of human subcutaneous adipose tissue and differentiated in vitro as follows: […] Preadipocytes were maintained in this differentiation medium for 3 days and subsequently cultured in adipocyte medium in which BRL49653 and MIX were omitted. Cultures were re-fed every 2-3 days till fully differentiated. Cells were incubated in serum free medium overnight before chemical treatment. Chemicals were freshly diluted in adipocyte medium before treatment. […] Cell viability was measured via trypan blue exclusion. Adipocyte and muscle 18s, TNFα, IL-6, IL-8, IL-15 and adiponectin were quantitatively measured using a smart cycler real-time PCR system (Cepheid, Sunnyvale, Calif.) with a TaqMan 1000 Core Reagent Kit (Applied Biosystems, Branchburg, N.J.). […] Reactions of quantitative RT-PCR for standards and unknown samples were also performed according to the instructions of Smart Cycler System (Cepheid, Sunnyvale, Calif.) and TaqMan Real Time PCR Core Kit (Applied Biosystems, Branchburg, N.J.). The mRNA quantitation for each sample was further normalized using the corresponding 18s quantitation.

TNFα [1] = test: TNFα expression in RAW 264 macrophages; format: cell-based
Method: RAW 264 macrophages and 3T3-L1 preadipocytes (American Type Culture Collection) were incubated at a density of 8000 cells/cm2 (10 cm2 dish) and grown in Dulbecco's modified Eagle's medium (DMEM) containing 10% FBS and antibiotics (adipocyte medium) at 37° C. in 5% CO2 in air. Confluent 3T3-L1 preadipocytes were induced to differentiate with a standard differentiation medium consisting of DMEM-F10 (1:1, vol/vol) medium supplemented with 1% FBS, 1 μM dexamethasone, IBMX (0.5 mM) and antibiotics (1% Penicillin-Streptomycin). Preadipocytes were maintained in this differentiation medium for 3 days and subsequently cultured in adipocyte medium. Cultures were re-fed every 2-3 days to allow 90% cells to reach fully differentiation for 3T3-L1 adipocytes or grow to a confluence for RAW 264 before conducting chemical treatment.
Human adipocytes (Zen-Bio, Inc.), 3T3-L1 adipocytes, RAW264 macrophages were obtained and co-cultured by using transwell inserts with 0.4 μm porous membranes (Corning) to separate adipocytes and macrophages. All data are expressed as mean±SEM. Data were evaluated for statistical significance by analysis of one-way or two-way variance (ANOVA; means with different letter differ, p<0.05).
Adipocyte and muscle 18s, CD14, TNFα, MIP, M-CSF, IL-6 and MCP-1 were quantitatively measured using a Smart Cycler Real Time PCR System (Cepheid, Sunnyvale, Calif.) with a TaqMan 1000 Core Reagent Kit (Applied Biosystems, Branchburg, N.J.). The primers and probe sets were obtained from Applied Biosystems TaqMan® Assays-on-Demand™ Gene Expression primers and probe set collection according to manufacture's instruction. […] Reactions of quantitative RT-PCR for standards and unknown samples were also performed according to the instructions of Smart Cycler System (Cepheid, Sunnyvale, Calif.) and TaqMan Real Time PCR Core Kit (Applied Biosystems, Branchburg, N.J.). The mRNA quantitation for each sample was further normalized using the corresponding 18s quantitation.

TNFα [2] = test: TNFα expression in differentiated 3T3-L1 adipocytes; format: cell-based, mouse; conditions: 10 nmol/L, 48 h
Method: 3T3-L1 pre-adipocytes were incubated at a density of 8000 cells/cm^2 (10 cm^2 dish) and grown in Dulbecco's modified Eagle's medium (DMEM) containing 10% FBS and antibiotics (adipocyte medium) at 37° C. in 5% CO2 in air. Confluent pre-adipocytes were induced to differentiate with a standard differentiation medium consisting of DMEM-F10 (1:1, vol/vol) medium supplemented with 1% fetal bovine serum (FBS), 1 μM dexamethasone, isobutylmethylxanthine (IBMX) (0.5 mM) and antibiotics (1% Penicillin-Streptomycin). Pre-adipocytes were maintained in this differentiation medium for 3 days and subsequently cultured in adipocyte medium. Cultures were re-fed every 2-3 days to allow 90% cells to reach fully differentiation before conducting chemical treatment. […] Cell viability was measured via trypan blue exclusion. Adipocyte and muscle 18s, TNFα, IL-6, IL-8, IL-15 and adiponectin were quantitatively measured using a smart cycler real-time PCR system (Cepheid, Sunnyvale, Calif.) with a TaqMan 1000 Core Reagent Kit (Applied Biosystems, Branchburg, N.J.). […] Reactions of quantitative RT-PCR for standards and unknown samples were also performed according to the instructions of Smart Cycler System (Cepheid, Sunnyvale, Calif.) and TaqMan Real Time PCR Core Kit (Applied Biosystems, Branchburg, N.J.). The mRNA quantitation for each sample was further normalized using the corresponding 18s quantitation.

MIF = MIF expression in human adipocytes; format: cell-based; conditions: calcitriol 10 nmol/L, 48 hours; p=0.001
Description: Cell culture: Human preadipocytes used in this study were supplied by Zen-Bio (Research Triangle, N.C.). Preadipocytes were inoculated in DMEM/Ham's F-10 medium (DMEM-F10) (1:1, vol/vol) containing 10% FBS, 15 mmol/L HEPES, and antibiotics at a density of 30,000 cells/cm^2. Confluent monolayers of preadipocytes were induced to differentiate with a standard differentiation medium consisting of DMEM-F 10 (1:1, vol/vol) medium supplemented with 15 mmol/L HEPES, 3% FBS, 33 μmol/L biotin, 17 μmol/L pantothenate, 100 nmol/L insulin, […] methylisobutylxanthine, 1 μmol/L dexamethasone, 1 μmol/L BRL49653, and antibiotics. […]
Cells were washed with fresh adipocyte medium, re-fed with medium containing the indicated treatments, and incubated at 37° C. in 5% CO2 for 48 hours before analysis. Cell viability was measured via trypan blue exclusion.
Adipocyte and muscle 18s, CD14, TNFα, MIP, M-CSF, IL-6 and MCP-1 were quantitatively measured using a Smart Cycler Real Time PCR System (Cepheid, Sunnyvale, Calif.) with a TaqMan 1000 Core Reagent Kit (Applied Biosystems, Branchburg, N.J.). […] Reactions of quantitative RT-PCR for standards and unknown samples were also performed according to the instructions of Smart Cycler System (Cepheid, Sunnyvale, Calif.) and TaqMan Real Time PCR Core Kit (Applied Biosystems, Branchburg, N.J.). […]

C=C1/C(=C\C=C2/CCC[C@]3(C)[C@@H]([C@H](C)CCCC(C)(C)O)CC[C@@H]23)C[C@@H](O)C[C@@H]1O [calcitriol, 1, 25-Dihydroxyvitamin D]
effect on IL-15 expression (IL-15): no effect | effect on TNFα expression in macrophages in co-culture (TNFα [1]; co-culture with differentiated 3T3-L1 adipocytes): further enhanced | stimulation of TNFα expression (TNFα [1]; macrophages cultured alone, calcitriol 10 nmol/L, 48 hours): 91% | stimulation of TNFα expression (TNFα [2]): 135% | increase of MIF expression (MIF): 59%
